Results taken from patent US20060142359A1, “Cyclopenta[c]isoxazole-3-amines used as protective agents for materials” (priority 2002, published 2006).
Converted amounts (≈) assume the structure as drawn. Read-outs that look alike come from different tables or passages of the source. One block for each molecule: values may come before it.

Legend:
[1] = tested on: Chaetomium globosum; assay: MIC against fungi on malt extract agar (Use Example B); type: cell-based; conditions: 504 h, 3 weeks at 28° C., 60-70% relative atmospheric humidity, read-out: Minimum inhibitory concentrations Chaetomium globosum
Experimental: (§1) The MIC was determined after 3 weeks of storage at 28° C. and 60-70% relative atmospheric humidity. The MIC is the lowest concentration of active compound at which there is no colonization by the microbial species used.

[2] = tested on: Penicillium brevicaule; assay: as above; type: cell-based; conditions: 504 h, 3 weeks at 28° C., 60-70% relative atmospheric humidity, read-out: Minimum inhibitory concentrations Penicillium brevicaule
Experimental: as §1

[3] = tested on: Aspergillus niger; assay: as above; type: cell-based; conditions: 504 h, 3 weeks at 28° C., 60-70% relative atmospheric humidity, read-out: Minimum inhibitory concentrations Aspergillus niger
Experimental: as §1

[4] = tested on: Bacillus subtilis; assay: MIC against bacteria on Landy agar (Use Example A); type: cell-based; conditions: 72 h, 3 days at 28° C., 60-70% relative atmospheric humidity, read-out: Minimum inhibitory concentrations Bacillus subtilis
Experimental: (§2) A defined Landy Agar was admixed with active compounds according to the invention in concentrations of […]. The MIC was determined after 3 days of storage at 28° C. and 60-70% relative atmospheric humidity. The MIC is the lowest concentration of active compound at which there is no colonization by the microbial species used.

[5] = tested on: Pseudomonas aeroginosa; assay: MIC against bacteria on Landy agar (Use Example A); type: cell-based; conditions: 72 h, 3 days at 28° C., 60-70% relative atmospheric humidity, read-out: Minimum inhibitory concentrations Pseudomonas aeroginosa
Experimental: as §2

[6] = tested on: Pseudomonas aeruginosa NCIB 6749; assay: MIC antibacterial action (Use Example D, analogous to A); type: cell-based; conditions: NCIB6749, 72 h
Experimental: as §2
Analogously to Use Example A, the minimum inhibitory concentrations (MIC) of active compounds according to the invention were determined. Both on chemically defined medium and on complex medium, the compounds tested had minimum inhibitory concentrations </=100 ppm against Pseudomonas aeruginosa NCIB 6749: […]

[7] = tested on: Rhodotorula rubra; assay: MIC antifungal action (Use Example C, analogous to B); type: cell-based; conditions: analogously to Use Example B, read-out: minimum inhibitory concentrations (MIC) Rhodotorula rubra
Experimental: (§3) An agar which had been prepared using malt extract was admixed with active compounds according to the invention in concentrations of from 0.1 mg/l to 5000 mg/l. The MIC was determined after 3 weeks of storage at 28° C. and 60-70% relative atmospheric humidity. The MIC is the lowest concentration of active compound at which there is no colonization by the microbial species used. Analogously to Use Example B, the minimum inhibitory concentrations (MIC) of active compounds according to the invention were determined. Against fungi such as Fusarium solani, Geotrichum candidum and Rhodotorula rubra the compounds tested had minimum inhibitory concentrations of <500 ppm: […]

[8] = tested on: Geotrichum candidum; assay: as above; type: cell-based; conditions: analogously to Use Example B, read-out: minimum inhibitory concentrations (MIC) Geotrichum candidum
Experimental: as §3

[9] = tested on: Fusarium solani; assay: as above; type: cell-based; conditions: analogously to Use Example B, read-out: minimum inhibitory concentrations (MIC) Fusarium solani
Experimental: as §3

[10] = chemically defined medium, read-out: MIC values (chem.def. medium)
[11] = complex medium, read-out: MIC values (complex medium)

MIC [1]: 100 µg/mL (≈ 411 µM) | MIC [2]: 100 µg/mL (≈ 411 µM) | MIC [3]: 200 µg/mL (≈ 822 µM) | MIC [4]: < 40 µg/mL | MIC [5]: < 100 µg/mL | melting point: 202 °C
Compound: O=C(Nc1ccccc1)Nc1onc2c1CCC2 [Example 5, N-(5,6-dihydro-4H-cyclopenta[c]isoxazol-3-yl)-N′-phenylurea]

MIC [4]: 100 µg/mL (≈ 378 µM) | MIC [5]: 400 µg/mL (≈ 1510 µM) | melting point: 132 °C
Compound: O=S(=O)(Nc1onc2c1CCC2)c1ccccc1 [Example 7, N-(5,6-dihydro-4H-cyclopenta[c]isoxazol-3-yl)benzenesulfonamide]

melting point: 166 °C
Compound: C(=N/c1onc2c1CCC2)/c1ccccc1 [Example 8, N-(5,6-dihydro-4H-cyclopenta[c]isoxazol-3-yl)-N-(-phenylmethylidene)amine]

MIC [1]: 100 µg/mL (≈ 378 µM) | MIC [2]: 200 µg/mL (≈ 757 µM) | MIC [3]: > 400 µg/mL | MIC [4]: 100 µg/mL (≈ 378 µM) | MIC [5]: < 100 µg/mL
Compound: CCCC(=O)N(C(=O)CCC)c1onc2c1CCC2 [Example 15]

melting point: 35 °C
Compound: CC(C)CC(=O)N(C(=O)CC(C)C)c1onc2c1CCC2 [Example 16]

melting point: 150 °C
Compound: O=C(c1ccco1)N(C(=O)c1ccco1)c1onc2c1CCC2 [Example 17]

melting point: 218 °C
Compound: Cc1ccc(NC(=O)Nc2onc3c2CCC3)cc1 [Example 20]

melting point: 225 °C
Compound: O=C(Nc1ccc(Cl)cc1)Nc1onc2c1CCC2 [Example 21]

melting point: 146 °C
Compound: S=C(Nc1ccccc1)Nc1onc2c1CCC2 [Example 23]

melting point: 112 °C
Compound: Cc1ccc(S(=O)(=O)Nc2onc3c2CCC3)cc1 [Example 25]

melting point: 167 °C
Compound: C(=N/c1onc2c1CCC2)/c1ccccn1 [Example 33]

MIC [6, 10]: 10 µg/mL (≈ 34.2 µM) | MIC [6, 11]: 10 µg/mL (≈ 34.2 µM)
Compound: C=C(C)OC(=O)N(C(=O)OC(=C)C)c1onc2c1CCC2 [Example 35]

MIC [6, 10]: 10 µg/mL (≈ 30.8 µM) | MIC [6, 11]: 5 µg/mL (≈ 15.4 µM)
Compound: CC(C)COC(=O)N(C(=O)OCC(C)C)c1onc2c1CCC2 [Example 37]

MIC [6, 10]: 50 µg/mL (≈ 189 µM) | MIC [6, 11]: 20 µg/mL (≈ 75.7 µM) | MIC [7]: 100 µg/mL (≈ 378 µM) | MIC [8]: 100 µg/mL (≈ 378 µM) | MIC [9]: 50 µg/mL (≈ 189 µM)
Compound: C=COC(=O)N(C(=O)OC=C)c1onc2c1CCC2 [Example 38]

MIC [6, 10]: 20 µg/mL (≈ 51 µM) | MIC [6, 11]: 20 µg/mL (≈ 51 µM)
Compound: O=C(OCc1ccccc1)N(C(=O)OCc1ccccc1)c1onc2c1CCC2 [Example 40]

MIC [6, 10]: 10 µg/mL (≈ 29.7 µM) | MIC [6, 11]: 5 µg/mL (≈ 14.8 µM) | MIC [7]: 200 µg/mL (≈ 593 µM) | MIC [8]: 500 µg/mL (≈ 1480 µM) | MIC [9]: 200 µg/mL (≈ 593 µM)
Compound: O=C(OCCCl)N(C(=O)OCCCl)c1onc2c1CCC2 [Example 41]

MIC [6, 10]: 10 µg/mL (≈ 23.5 µM) | MIC [6, 11]: 5 µg/mL (≈ 11.7 µM) | MIC [7]: 500 µg/mL (≈ 1170 µM) | MIC [8]: 500 µg/mL (≈ 1170 µM) | MIC [9]: 200 µg/mL (≈ 469 µM)
Compound: O=C(OCCBr)N(C(=O)OCCBr)c1onc2c1CCC2 [Example 42]

MIC [6, 10]: 20 µg/mL (≈ 68.4 µM) | MIC [6, 11]: 10 µg/mL (≈ 34.2 µM)
Compound: C=CCOC(=O)N(C(=O)OCC=C)c1onc2c1CCC2 [Example 43]

Second part, the molecule before the results:

Compound: Nc1onc2c1CCC2 [Example 1, 5,6-dihydro-4H-cyclopenta[c]isoxazole-3-amine]
MIC [1]: < 100 µg/mL | MIC [2]: < 100 µg/mL | MIC [3]: < 100 µg/mL | MIC [4]: < 40 µg/mL | MIC [5]: < 100 µg/mL

Compound: CNc1onc2c1CCC2 [Example 2, N-methyl-5,6-dihydro-4H-cyclopenta[c]isoxazole-3-amine]
melting point: 52 °C

Compound: CC(C)(C)C(=O)Nc1onc2c1CCC2 [Example 3, N-(5,6-dihydro-4H-cyclopenta[c]isoxazol-3-yl)-2,2-dimethylpropanamide]
melting point: 113 °C

Compound: CCCCNC(=S)Nc1onc2c1CCC2 [Example 6, N-butyl-N′-(5,6-dihydro-4H-cyclopenta[c]isoxazol-3-yl)thiourea]
melting point: 93 °C

Compound: CC(C)C(=O)Nc1onc2c1CCC2 [Example 12]
melting point: 116 °C

Compound: O=C(Nc1onc2c1CCC2)C(F)(F)F [Example 14]
MIC [1]: 100 µg/mL (≈ 454 µM) | MIC [2]: 100 µg/mL (≈ 454 µM) | MIC [3]: 100 µg/mL (≈ 454 µM) | MIC [4]: < 40 µg/mL | MIC [5]: < 100 µg/mL | melting point: 118 °C

Compound: O=C(Nc1onc2c1CCC2)NC1CCCCC1 [Example 19]
MIC [4]: 100 µg/mL (≈ 401 µM) | MIC [5]: 400 µg/mL (≈ 1600 µM) | melting point: 152 °C

Compound: Cc1ccc(NC(=O)Nc2onc3c2CCC3)c(C)c1 [Example 22]
melting point: 230 °C

Compound: CC(C)S(=O)(=O)Nc1onc2c1CCC2 [Example 24]
melting point: 91 °C

Compound: CCCCC/C=N\c1onc2c1CCC2 [Example 27]
melting point: 125 °C

Compound: Fc1ccc(/C=N\c2onc3c2CCC3)cc1 [Example 28]
melting point: > 260 °C

Compound: Clc1ccc(/C=N\c2onc3c2CCC3)cc1 [Example 29]
melting point: 190 °C

Compound: Cc1ccc(/C=N\c2onc3c2CCC3)cc1 [Example 30]
melting point: 238 °C

Compound: COc1ccc(/C=N\c2onc3c2CCC3)cc1 [Example 31]
melting point: 249 °C

Compound: FC(F)(F)c1ccc(/C=N\c2onc3c2CCC3)cc1 [Example 32]
melting point: > 260 °C

Compound: CCCCC(CC)COC(=O)N(C(=O)OCC(CC)CCCC)c1onc2c1CCC2 (stereo not drawn) [Example 34]
MIC [6, 10]: 100 µg/mL (≈ 229 µM) | MIC [6, 11]: 50 µg/mL (≈ 115 µM)

Compound: O=C(OCC(Cl)(Cl)Cl)N(C(=O)OCC(Cl)(Cl)Cl)c1onc2c1CCC2 [Example 36]
MIC [6, 10]: 10 µg/mL (≈ 21.1 µM) | MIC [6, 11]: 5 µg/mL (≈ 10.5 µM)
